Experimental data as given in PMC5587909, “Inhibition of the ATP Synthase Eliminates the Intrinsic Resistance of Staphylococcus aureus towards Polymyxins” (mBio, 2017).
Values after ≈ are worked out from the molar mass of the structure shown. Bridge positions count the residues as written; N and C are the ends. Square brackets hold non-standard residues; d marks the D form. Peptide text beside a SMILES is read from it. * marks the point of attachment. Ileψ(thiazoline)Cys = CC[C@H](C)[C@H](N)C1=N[C@H](C(=O)*)CS1; dOrn = NCCC[C@@H](N)C(=O)O; X1 = CC[C@H](C)CCCCC(=O)*; Dab = NCC[C@H](N)C(=O)O

How the values were obtained:
[1] = test system: S. aureus JE2 graR mutant; type: cell-based, Staphylococcus aureus; settings: 2-fold broth microdilution in TSB (100 µl), inoculum approx. 5 × 10^5 cells/ml, 37°C, 22 h; graR mutant
Source text: (§1) The strains used in this study include S. aureus strain JE2 (plasmid-cured derivative of USA300 LAC) and all derivative strains within the Nebraska Transposon Mutant Library (NTML), consisting of 1,920 unique transposon mutants with inactivation of nonessential genes ([15]). The bursa aurealis transposon used to create the collection contains the resistance cassette ermB, which confers resistance to erythromycin ([15]). Additionally we used S. aureus SA113 and two derivatives, SA113 ΔdltA ([9]) and SA113 ΔmprF ([10]). All bacterial strains were cultured at 37°C in tryptic soy broth (TSB) or on tryptic soy agar (TSA), with antimicrobial agents added as indicated. Two methods have been employed to determine MICs to various antimicrobial agents. (i) A 2-fold broth microdilution assay in TSB (100 µl) with an initial inoculum of approximately 5 × 10^5 cells/ml was employed to determine the MICs of polymyxin B sulfate (Sigma), gallidermin (Santa Cruz Biotechnology), nisin (Sigma), bacitracin (Sigma), and LL-37 (Isca Biochemicals). (ii) An Etest (BioMérieux) performed on TSA plates was employed to determine MICs for polymyxin B, colistin, ciprofloxacin, oxacillin, linezolid, gentamicin, vancomycin, and daptomycin. The MIC was determined upon incubation at 37°C for 22 h. When indicated, the Etest (BioMérieux) was performed on Mueller-Hinton agar plates (cation adjusted for calcium and magnesium).

[2] = test system: S. aureus JE2 (WT); type: cell-based, Staphylococcus aureus; settings: 2-fold broth microdilution in TSB (100 µl), inoculum approx. 5 × 10^5 cells/ml, 37°C, 22 h
Source text: as §1

[3] = test system: S. aureus JE2 atpA mutant; type: cell-based, Staphylococcus aureus; settings: 2-fold broth microdilution in TSB (100 µl), inoculum approx. 5 × 10^5 cells/ml, 37°C, 22 h
Source text: as §1

[4] = test system: S. aureus JE2 vraG mutant; type: cell-based, Staphylococcus aureus; settings: 2-fold broth microdilution in TSB (100 µl), inoculum approx. 5 × 10^5 cells/ml, 37°C, 22 h
Source text: as §1

[5] = test system: S. aureus JE2 vraF mutant; type: cell-based, Staphylococcus aureus; settings: 2-fold broth microdilution in TSB (100 µl), inoculum approx. 5 × 10^5 cells/ml, 37°C, 22 h; vraF mutant
Source text: as §1

[6] = test system: S. aureus JE2 vraG transposon mutant (SAUSA300_0648); experiment: microbe, parasite or virus in culture; settings: Etest on TSA, 37°C, 22 h, vraG mutant
Source text: (§2) Staphylococcus aureus is intrinsically resistant to the clinically approved cationic antimicrobial peptides polymyxin B (PMB) and colistin ([1], [16]). […] The MIC for PMB was subsequently determined using Etests for the identified mutants.
as §1, with “(ii) An Etest (BioMérieux) performed on TSA plates was employed to determine MICs for polymyxin B, colistin, ciprofloxacin, oxacillin, linezolid, gentamicin, vancomycin, and daptomycin.” left out, “When indicated, the Etest (BioMérieux) was performed on Mueller-Hinton agar plates (cation adjusted for calcium and magnesium).” left out

[7] = test system: S. aureus JE2 vraF transposon mutant (SAUSA300_0647); experiment: microbe, parasite or virus in culture; settings: Etest on TSA, 37°C, 22 h, vraF mutant
Source text: as §2
as §1, with “(ii) An Etest (BioMérieux) performed on TSA plates was employed to determine MICs for polymyxin B, colistin, ciprofloxacin, oxacillin, linezolid, gentamicin, vancomycin, and daptomycin.” left out, “When indicated, the Etest (BioMérieux) was performed on Mueller-Hinton agar plates (cation adjusted for calcium and magnesium).” left out

[8] = test system: S. aureus JE2 atpA transposon mutant (SAUSA300_2060); experiment: microbe, parasite or virus in culture; settings: Etest on TSA, 37°C, 22 h, atpA mutant
Source text: as §2
as §1, with “(ii) An Etest (BioMérieux) performed on TSA plates was employed to determine MICs for polymyxin B, colistin, ciprofloxacin, oxacillin, linezolid, gentamicin, vancomycin, and daptomycin.” left out, “When indicated, the Etest (BioMérieux) was performed on Mueller-Hinton agar plates (cation adjusted for calcium and magnesium).” left out

[9] = test system: S. aureus JE2 (wild type); experiment: microbe, parasite or virus in culture; settings: Etest on TSA, 37°C, 22 h
Source text: as §2
as §1, with “(ii) An Etest (BioMérieux) performed on TSA plates was employed to determine MICs for polymyxin B, colistin, ciprofloxacin, oxacillin, linezolid, gentamicin, vancomycin, and daptomycin.” left out, “When indicated, the Etest (BioMérieux) was performed on Mueller-Hinton agar plates (cation adjusted for calcium and magnesium).” left out

[10] = test system: S. aureus JE2 graR transposon mutant (SAUSA300_0645); experiment: microbe, parasite or virus in culture; settings: Etest on TSA, 37°C, 22 h, graR mutant
Source text: as §2
as §1, with “(ii) An Etest (BioMérieux) performed on TSA plates was employed to determine MICs for polymyxin B, colistin, ciprofloxacin, oxacillin, linezolid, gentamicin, vancomycin, and daptomycin.” left out, “When indicated, the Etest (BioMérieux) was performed on Mueller-Hinton agar plates (cation adjusted for calcium and magnesium).” left out

[11] = test system: S. aureus JE2 yajC transposon mutant (SAUSA300_1594); type: cell-based, Staphylococcus aureus; settings: Etest on TSA, 37°C, 22 h
Source text: (§3) Staphylococcus aureus is intrinsically resistant to the clinically approved cationic antimicrobial peptides polymyxin B (PMB) and colistin ([1], [16]). […] The MIC for PMB was subsequently determined using Etests for the identified mutants. Nineteen mutants were confirmed to be at least 2-fold more susceptible than the WT (Table 1). As expected, we identified transposon insertions in graS, graR, vraF, and vraG, corroborating previous work on these determinants in S. aureus in relation to increased PMB susceptibility ([12]).
as §1

[12] = test system: S. aureus JE2 atpB transposon mutant (SAUSA300_2064); type: cell-based, Staphylococcus aureus; settings: Etest on TSA, 37°C, 22 h; atpB mutant
Source text: as §3, §1

[13] = test system: S. aureus JE2 trkA transposon mutant (SAUSA300_0988); type: cell-based, Staphylococcus aureus; settings: Etest on TSA, 37°C, 22 h
Source text: as §3, §1

[14] = test system: S. aureus JE2 transposon mutant SAUSA300_1785 (putative ABC transporter protein EcsB); type: cell-based, Staphylococcus aureus; settings: Etest on TSA, 37°C, 22 h
Source text: as §3, §1

[15] = test system: S. aureus JE2 cbiO transposon mutant (SAUSA300_2176); type: cell-based, Staphylococcus aureus; settings: Etest on TSA, 37°C, 22 h
Source text: as §3, §1

[16] = test system: S. aureus JE2 graS transposon mutant (SAUSA300_0646); type: cell-based, Staphylococcus aureus; settings: Etest on TSA, 37°C, 22 h; graS mutant
Source text: as §3, §1

[17] = test system: S. aureus JE2 transposon mutant SAUSA300_1254 (hypothetical protein); type: cell-based, Staphylococcus aureus; settings: Etest on TSA, 37°C, 22 h
Source text: as §3, §1

[18] = test system: S. aureus JE2 transposon mutant SAUSA300_1495 (hypothetical protein); type: cell-based, Staphylococcus aureus; settings: Etest on TSA, 37°C, 22 h
Source text: as §3, §1

[19] = test system: S. aureus JE2 lspA transposon mutant (SAUSA300_1089); type: cell-based, Staphylococcus aureus; settings: Etest on TSA, 37°C, 22 h
Source text: as §3, §1

[20] = test system: S. aureus JE2 transposon mutant SAUSA300_1802 (hypothetical protein); type: cell-based, Staphylococcus aureus; settings: Etest on TSA, 37°C, 22 h
Source text: as §3, §1

[21] = test system: S. aureus JE2 vraS transposon mutant (SAUSA300_1866); type: cell-based, Staphylococcus aureus; settings: Etest on TSA, 37°C, 22 h
Source text: as §3, §1

[22] = test system: S. aureus JE2 atpH transposon mutant (SAUSA300_2061); type: cell-based, Staphylococcus aureus; settings: Etest on TSA, 37°C, 22 h; atpH mutant
Source text: as §3, §1

[23] = test system: S. aureus JE2 transposon mutant SAUSA300_0980 (hypothetical protein); type: cell-based, Staphylococcus aureus; settings: Etest on TSA, 37°C, 22 h
Source text: as §3, §1

[24] = test system: S. aureus JE2 atpG transposon mutant (SAUSA300_2059); type: cell-based, Staphylococcus aureus; settings: Etest on TSA, 37°C, 22 h; atpG mutant
Source text: as §3, §1

[25] = test system: S. aureus JE2 transposon mutant SAUSA300_0918 (diacylglycerol glucosyltransferase); type: cell-based, Staphylococcus aureus; settings: Etest on TSA, 37°C, 22 h
Source text: as §3, §1

[26] = conventional antibiotics (Table 3)

## CC[C@H](C)[C@H](N)C1=N[C@H](C(=O)N[C@@H](CC(C)C)C(=O)N[C@H](CCC(=O)O)C(=O)N[C@H](C(=O)N[C@H]2CCCCNC(=O)[C@H](CC(N)=O)NC(=O)[C@@H](CC(=O)O)NC(=O)[C@H](Cc3cnc[nH]3)NC(=O)[C@@H](Cc3ccccc3)NC(=O)[C@H]([C@@H](C)CC)NC(=O)[C@@H](CCCN)NC2=O)[C@@H](C)CC)CS1 [Bacitracin, bacitracin] ({Ileψ(thiazoline)Cys}-L[dE]IK[dOrn]I[dF]H[dD]N; lactam 4-C (inferred); N-terminus assumed)
[1]
  MIC, graR: 128 µg/mL (≈ 90 µM)
[2]
  MIC, WT: 256 µg/mL (≈ 180 µM)
[3]
  MIC, atpA: 128 µg/mL (≈ 90 µM)
[4]
  MIC, vraG: 256 µg/mL (≈ 180 µM)
[5]
  MIC, vraF: 256 µg/mL (≈ 180 µM)

## CC[C@H](C)CCCCC(=O)N[C@@H](CCN)C(=O)N[C@H](C(=O)N[C@@H](CCN)C(=O)N[C@H]1CCNC(=O)[C@H]([C@@H](C)O)NC(=O)[C@H](CCN)NC(=O)[C@H](CCN)NC(=O)[C@H](CC(C)C)NC(=O)[C@@H](CC(C)C)NC(=O)[C@H](CCN)NC1=O)[C@@H](C)O [Colistin, colistin] (X1-[Dab]T[Dab][Dab][Dab][dL]L[Dab][Dab]T; lactam 4-C (inferred); N-terminus assumed)
[6]
  MIC: 24 µg/mL (≈ 20.5 µM)
[7]
  MIC: 32 µg/mL (≈ 27.4 µM)
[8]
  MIC: 48 µg/mL (≈ 41 µM)
[9]; wild type S. aureus JE2
  MIC: >256 µg/mL
[10]
  MIC: 32 µg/mL (≈ 27.4 µM)
[11]
  MIC: 256 µg/mL (≈ 219 µM)
[12]
  MIC: 48 µg/mL (≈ 41 µM)
[13]
  MIC: 128 µg/mL (≈ 109 µM)
[14]
  MIC: >256 µg/mL
[15]
  MIC: 64 µg/mL (≈ 54.7 µM)
[16]
  MIC: 32 µg/mL (≈ 27.4 µM)
[17]
  MIC: 192 µg/mL (≈ 164 µM)
[18]
  MIC: >256 µg/mL
[19]
  MIC: 256 µg/mL (≈ 219 µM)
[20]
  MIC: >256 µg/mL
[21]
  MIC: 256 µg/mL (≈ 219 µM)
[22]
  MIC: 48 µg/mL (≈ 41 µM)
[23]
  MIC: >256 µg/mL
[24]
  MIC: 48 µg/mL (≈ 41 µM)
[25]
  MIC: >256 µg/mL

## CCCCCCCCCC(=O)N[C@@H](Cc1c[nH]c2ccccc12)C(=O)N[C@H](CC(N)=O)C(=O)N[C@@H](CC(=O)O)C(=O)N[C@@H]1C(=O)NCC(=O)N[C@@H](CCCN)C(=O)N[C@@H](CC(=O)O)C(=O)N[C@H](C)C(=O)N[C@@H](CC(=O)O)C(=O)NCC(=O)N[C@H](CO)C(=O)N[C@@H]([C@H](C)CC(=O)O)C(=O)N[C@@H](CC(=O)c2ccccc2N)C(=O)O[C@@H]1C [Daptomycin, daptomycin]
[6]; [26]
  MIC, vraG: 0.25 µg/mL (≈ 0.154 µM)
[7]; [26]
  MIC, vraF: 0.25 µg/mL (≈ 0.154 µM)
[8]; [26]
  MIC, atpA: 0.250 µg/mL (≈ 0.154 µM)
[9]; conventional antibiotics (Table 3), WT JE2
  MIC, WT: 0.25 µg/mL (≈ 0.154 µM)
[10]; [26]
  MIC, graR: 0.19 µg/mL (≈ 0.117 µM)
